Test results from ChEMBL document CHEMBL2384977, “Synthesis and biological evaluation of novel styryl benzimidazole derivatives as probes for imaging of neurofibrillary tangles in Alzheimer's disease” (Bioorg Med Chem, 2013).
One block for each molecule: values may come before it.

Columns and labels:
Assay type in all cases: ADME, organism-based
Details in all cases: in vivo
Brain [1] = experiment: Ratio of drug level in ddY mouse brain at 7.1 to 21.5 kBq, iv measured at 2 mins to drug level in ddY mouse brain at 7.1 to 21.5 kBq, iv measured at 60 mins
Brain [2] = experiment: Ratio of drug level in ddY mouse brain at 64.5 kBq, iv measured at 2 mins to drug level in ddY mouse brain at 64.5 kBq, iv measured at 60 mins
Brain [3] = experiment: Ratio of drug level in ICR mouse brain at 0.68 to 1.32 MBq, iv measured at 2 mins to drug level in ICR mouse brain at 0.68 to 1.32 MBq, iv measured at 60 mins

Ratio (Brain [1]): 6.16
SMILES: O=C1/C(=C/c2ccc(-c3cccc([125I])c3)o2)NC(=S)N1CCc1c[nH]cn1

Ratio (Brain [2]): 1.69
SMILES: CN(C)c1ccc(/N=N/c2nc3ccc(OCCOCCOCC[18F])cc3s2)cc1

Ratio (Brain [3]): 1.83
SMILES: Nc1ccc(-c2ccc3cc(OCC[18F])ccc3n2)cc1
